The test system of one test is tau. In words: Tau Ser/Thr phosphorylation and ubiquitination in the presence of MG132. The test is classed as cell-based, rat. The method, then:
Primary hippocampal neurons were prepared from E12–E15 days SD rat embryos. Briefly, pregnant rats were acutely executed, hippocampus was dissected on ice and gently minced in DME/F12 (Hyclone) then suspended in 0.125% (vol/vol) trypsin solution at 37 °C for 20 min. Enzymatic activity was stopped by fetal bovine serum. Neurons were initially kept in 10% FBS-containing DME/F12 for 4–6 h, and subsequently cultured in Neurobasal (Hyclone) with 2% B27, 1% glutamax and 1% penicillin–streptomycin (Thermo Fisher Scientific) in dishes pre-coated with 100 μg/mL poly-D-lysine. Serum was gradually removed by replacing half of the medium for each time within the following 2 days. […]
Cultured cells or hippocampus tissues were collected on ice, and homogenized with RIPA lysis buffer containing 50 mM Tris-HCl, 100 mM NaCl, 1% Triton X-100, 5 mM EDTA, and 1:100 PMSF, and then centrifuged at 12,000 × g for 20 min. […] Protein concentration was measured through BCA assays (Thermo Fisher). […] Blots were visualized using ECL luminol reagent (P0018FS, Beyotime), and quantified using ImageJ software.
For co-immunoprecipitation, cultured cells were lysed on ice with RIPA buffer for 10 min containing 1:100 PMSF. […] Immunoprecipitants were subsequently analyzed through Western blotting.

Test [1] has as its system human tau N-terminal 1–368 fragment (hTau-N368). In words: Hippocampal phosphorylated and total tau in dox-treated Tau368 mice. Type of test: in vivo, mouse. The method, then:
(§1) Mice weighting 20–30 g were anesthetized with 1% pentobarbital sodium (35 mg/kg), and fixed in a stereotaxic instrument (RWD). The scalp was sterilized with iodophors and 75% ethanol, and incised along the skull midline. Holes were drilled. Adeno-associated virus or DEPTAC was injected into the dorsal DG (posterior 1.9 mm, lateral ±1.1 mm from the bregma, ventral −2.0 from the skull) or lateral ventricle (posterior 0.22 mm, lateral ±1.0 mm from the bregma, ventral −2.5 from the skull), respectively, using an automatic microinjection system (World Precision Instruments, USA) at a rate of 0.05 μL/min. The needle syringe was left in place for 5 min before withdrawal. The skin was sutured and sterilized with iodophors. Mice were placed on thermos tank for analepsia.
(§2) For 2-month male C57BL/6 mice, 10 mM FITC-labeled or unlabeled-DEPTAC were directly injected through the tail vein or lateral ventricle for the evaluation of BBB-penetrability. For 9-month 3×Tg AD mice or Tau368 (20–30 g body weight), unlabeled-DEPTAC (5 mM, 1 μL for each time) was delivered for once into the lateral ventricle through direct stereotaxic injection, or repeatedly administrated through guiding cannulas (RWD, Shenzhen, China) implanted into the lateral ventricle once every 3 days for a consecutive month to test its dephosphorylation efficiency. Mice were restricted in a custom designed device and stayed awake during drug administration, and sacrificed at 24 h post the single or last DEPTAC administration.
(§3) Cultured cells or hippocampus tissues were collected on ice, and homogenized with RIPA lysis buffer containing 50 mM Tris-HCl, 100 mM NaCl, 1% Triton X-100, 5 mM EDTA, and 1:100 PMSF, and then centrifuged at 12,000 × g for 20 min. The supernatant was collected for the analysis of soluble proteins. In some experiments, the pellets were further incubated with 8% SDS buffer at 37 °C and then ultrasound for 60 times to reach a complete resuspension for the analysis of insoluble tau. Protein concentration was measured through BCA assays (Thermo Fisher). Equal amount of protein from each sample were separated in SDS-PAGE gels, and then transferred onto nitrocellulose or 0.22 μm polyvinylidene fluoride membranes (Merck Millipore). The membranes were blocked with 5% BSA, and incubated in turn with primary and horseradish peroxidase-conjugated secondary antibodies: pS199-Tau (44734G, Invitrogen, 1:2000), pT205-Tau (11108-1, Signalway, 1:2000), pS396-Tau (11102, Signalway, 1:2000), pS404-Tau (11112, Signalway, 1:2000), AT8 (MN1020, Thermo Fisher, 1:1000), Tau5 (ab80579, Abcam, 1:1000), Tau46 (T9450, Sigma, 1:1000), PP2A-Bα (4953, Cell signaling, 1:1000), Phospho-Ser/Thr (ab17464, Abcam1:1000), Ubiquitin (ab7254, Abcam, 1:1000), MAP2 (AB5622, Millipore, 1:2000), hTau-N368 (a generous gift from Prof. Keqiang Ye, Emory University School of Medicine, 1:1000), DEPTAC (developed by Daian Biotechnology, Wuhan, China, 1:500), β-actin (ab6276, Abcam, 1:2000). HRP-conjugated goat anti-rabbit IgG (A0208, Beyotime, 1:3000), HRP-conjugated goat anti-mouse IgG (A0216, Beyotime, 1:3000). Blots were visualized using ECL luminol reagent (P0018FS, Beyotime), and quantified using ImageJ software.

The test system of a further test is endogenous mouse tau. Put plainly: Hippocampal endogenous mouse tau in NW-administrated Tau368 mice. The test is classed as in vivo. The note with it: 30 μg total protein. The method, then: as §1, §2, §3
Test [2] has as its system microtubules in neurites of hippocampal neurons of Tau368 mice. Put plainly: Electron microscopy of microtubule bundles. The test is classed as in vivo, mouse. The note with it: dox 2 months. The method, then: as §2
Mice were killed by overdose 1% pentobarbital sodium. Hippocampal tissues were isolated on ice, fixed in 2.5% glutaraldehyde at 4 °C for 24 h, washed in 0.1 M phosphate buffer, and post-fixed in 1% osmium acid for 2 h. After washed with phosphate buffer, tissues were dehydrated in increasing gradient of ethanol (30–100%), and incubated in turn with acetone/epoxy (2:1), acetone/epoxy (1:1) and epoxy for 12 h each at 37 °C. Tissues were subsequently embedded in epoxy at 37 °C for 48 h. Sections of 100 nm were sliced using a ultramicrotome (EM UC7, Leica), and stained in a buffer containing 2% uranium acetate and lead citrate at room temperature for 15 min. Images were taken by a transmission electron microscope (Tecnai G^2 20 TWIN, FEI). Bundles density and length were analyzed using ImageJ.

Setting [3] is: DEPTAC for a consecutive month after stopping dox, **p < 0.01, n = 3 mice.
The mark [4] stands for this setting: dox kept on, DEPTAC i.c.v. by guiding cannula once every three days for a consecutive month, 10 μg total protein, *p < 0.05, n = 3–4.
The mark [5] stands for this setting: hippocampus of Tau368 mice, 24 h of post-DEPTAC administration.
The mark [6] stands for this setting: NW Tau368 mice (no dox), n = 3–4.
Setting [7] is: then 1-month DEPTAC, *p < 0.05, n = 5 mice, 12–23 view fields.

Entries after “also recorded” stand apart in the source; their conditions may differ.

On to “(1) YQQYQDATADEQG, originates from the porcine β-tubulin 422–434 for recognizing and binding tau proteins.[5],[6] (2) GSGS, a linker for increasing the flexibility of the peptide.[15] (3) KKVAVVRTPPKSP, for recruiting PP2A-Bα,[16] and (4) RRRRRRRR [DEPTAC, DEPhosphorylation TArgeting Chimera; 38 amino acid residues, C185H314N72O56]”, for which, in the test on tau, the “tau phosphorylation at Ser/Thr residues” value was “downregulation; also recorded: decreased” and the tau ubiquitination result was “upregulation; also recorded: upregulated”. Besides, in test [1] (setting [3]), the “hippocampal phospho-tau after stopping the dox” value is “reduced; also recorded: downregulated” and the “hippocampal total tau after stopping the dox” value is “reduced; also recorded: downregulated”. Moreover, the “degree of tau reduction by DEPTAC” value in test [1] (discussion, compared with tau knock-out or siRNA knock-down) is on record as “far less than tau knock-out or siRNA-mediated knock-down”. In addition, in test [1] (setting [4]), the “hippocampal phospho-tau, dox kept on” value is given as “significantly reduced; also recorded: effectively facilitated the dephosphorylation” and the “hippocampal total tau, dox kept on” value is “significantly reduced; also recorded: effectively facilitated the dephosphorylation as well as the degradation of tau”. Also, the hippocampal phosphorylated tau entry in test [1] (dox-treated Tau368 mice, 5 mM, i.c.v., for a consecutive month / for once, 12–72 h post injection, n = 3–4) is “effective in reducing; also recorded: reduced phosphorylated and total tau prominently”. In test [1] (setting [5]), the “RIPA lysis buffer-insoluble tau” value is given as “tend to be decreased” and the “RIPA lysis buffer-soluble tau” value is recorded as “tend to be decreased”. Besides, in the test with endogenous mouse tau (setting [6]), the “endogenous mouse tau phosphorylation at Ser199” value was “limited effect”, the “endogenous mouse tau phosphorylation at Ser396” value is on record as “significantly downregulate”, the “endogenous mouse tau phosphorylation at Ser404” value was “significantly downregulate” and the “endogenous mouse tau phosphorylation at Thr205” value was “significantly downregulate”. Further, in the test on endogenous mouse tau (setting [6]), the “endogenous mouse tau, AT8 epitope” value is reported as “limited effect” and the “endogenous mouse total tau” value is recorded as “limited effect”. Further, in the test with endogenous mouse tau (NW Tau368 mice, overall, compared with dox group), the “efficiency of DEPTAC on mouse tau” value is “relatively limited”. In test [2] (setting [7]), the “density of microtubule bundles” value was “significantly reversed” and the “length of microtubule bundles” value is “significantly reversed”. Also, in test [2] (then DEPTAC for a consecutive month), the “microtubule disassembly in morphology” value is “efficiently reversed”.

(Values after publication PMC8280143, “A novel dephosphorylation targeting chimera selectively promoting tau removal in tauopathies” (Signal Transduction and Targeted Therapy, 2021).)
